Patent US20100029734A1, “METHODS FOR BREAST CANCER SCREENING AND TREATMENT” (Ore Pharmaceuticals Inc., priority 2008, published 2010)
Entries after “also recorded” stand apart in the source; their conditions may differ.

Experiments:
T47D (ER+, PR+) = settings: T47D cells; cited from earlier work
T47D xenografts = assay: Growth of ER+ breast cancer cell line xenografts in NODscid mice; type: in vivo; settings: 3-5 weeks, female NODscid mice
Protocol: Female NODscid mice of age 5-6 weeks received a subcutaneous estrogen pellet implant (1.7 mg). Twenty four hours after estrogen pellet implantation, the mice received tumor implantation by subcutaneous injection of T47D cells to the flank (approximately 2.5×10^6 cells/mouse). The mice were ear-notched for identification and housed 4 animals per cage. […] Tumors were measured 3 times weekly using digital calipers. Body weight was measured twice weekly. Clinical observations were conducted weekly.

T47D (ER+ cell line) = assay: RT-CES cell proliferation assay, T47D; type: cell-based, human
Protocol: (§1) Unless otherwise indicated, cell proliferation assays described in Examples 2-5 were performed using a Real-Time Cell Electronic Sensing (RT-CES™ 96X) instrument from ACEA Bioscience (San Diego, Calif.). This instrument utilizes an electronic readout (impedance) to non-invasively quantify adherent cell proliferation and viability in real time.
(§2) Cells were seeded in 96-well microtiter plates containing microelectronic sensor arrays (96E plates; ACEA). Cells were maintained in RPMI 1640 (Invitrogen, Carlsbad, Calif.) supplemented with 10% fetal bovine serum (FBS) (Hyclone, Logan, Utah) and were cultured at 37° C. in a humidified atmosphere containing 5% CO2. For proliferation assays, cells were seeded (20,000 cells/well), allowed to attach and grown overnight in standard growth medium. Cells were then serum-starved for 8 hours prior to the proliferation assay in presence or absence of test compound(s). The proliferation response was continuously monitored by measuring the impedance change in each well for the indicated number of hours. Data are expressed as cell index (CI) change relative to time in culture, reflecting measured changes in electrical impedance. Each value shown is an average of 6 wells.
(§3) T47D (American Type Culture Collection, Manassas, Va. (ATCC) cat. HTB-133) is an ER+ cell line derived from human mammary gland ductal carcinoma Other ER+ cell lines used in studies reported herein include ZR-75 and HCC70. HCC1143 (ATCC cat. CRL-2321) is an ER− cell line also derived from human mammary gland ductal carcinoma.
(§4) Following the 8 hour starvation phase, either Ang II (Sigma-Aldrich), 500 nM, or vehicle control was added to the cell culture. […] Ang II also stimulated proliferation of ER+ cell lines HCC70, by approximately 30%, and ZR-75, by approximately 35%, relative to vehicle control (data not shown).

HCC1143 (ER− cell line) = assay: RT-CES cell proliferation assay, HCC1143; type: cell-based, human
Protocol: as §1, §2, §3, §4

[1] = test system: cells cultured from invasive ductal carcinomas; settings: cells positive for ER and PR, cited from earlier work
invasive breast cancer = settings: administered for 5 years; women having risk factors; cited from earlier work
HCC70 = assay: RT-CES cell proliferation assay, HCC70; type: cell-based, human
Protocol: as §1
as §2, with “wells. […]” for “wells.”

ZR-75 = assay: RT-CES cell proliferation assay, ZR-75; type: cell-based, human
Protocol: as §1
as §2, with “wells. […]” for “wells.”

HCC1395 = assay: RT-CES cell proliferation assay, HCC1395; type: cell-based, human
Protocol: as §1
as §2, with “wells. […]” for “wells.”

HCC1954 = assay: RT-CES cell proliferation assay, HCC1954; type: cell-based, human
Protocol: as §1
as §2, with “wells. […]” for “wells.”

HCC1937 = assay: RT-CES cell proliferation assay, HCC1937; type: cell-based, human
Protocol: as §1
as §2, with “wells. […]” for “wells.”

HCC38 = assay: RT-CES cell proliferation assay, HCC38; type: cell-based, human
Protocol: as §1
as §2, with “wells. […]” for “wells.”

T47D = settings: cited from earlier work
MCF-7 = settings: cited from earlier work

## C[C@H](CS)C(=O)N1CCC[C@H]1C(=O)O [Captopril, (2S)-1-((2S)-2-methyl-3-sulfanylpropanoyl)pyrrolidine-2-carboxylic acid]
T47D (ER+, PR+)
  ER protein concentration: reduced ER
  PR protein concentration: increased PR
  [3H]thymidine incorporation (an index of cell proliferation): inhibited [3H]thymidine incorporation

## CCOc1nc2cccc(C(=O)OC(C)OC(=O)OC3CCCCC3)c2n1Cc1ccc(-c2ccccc2-c2nnn[nH]2)cc1 (stereo not shown) [candesartan cilexetil]
T47D xenografts; candesartan cilexetil 10, 30, 100 mg/kg p.o. once daily
  growth in tumor volume: reduced in a dose-dependent fashion

## CCCCC1=NC2(CCCC2)C(=O)N1Cc1ccc(-c2ccccc2-c2nnn[nH]2)cc1 [irbesartan]
T47D (ER+ cell line); T47D, AT1 receptor antagonist 5 μM + Ang II 500 nM
  inhibition of Ang II-induced growth / cell proliferation: significantly inhibited Ang II-induced growth; also recorded: reversed the Ang II effect
HCC1143 (ER− cell line); HCC1143, AT1 receptor antagonist 5 μM + Ang II 500 nM, data not shown
  effect on cell proliferation: No effects
T47D xenografts; irbesartan 30, 100, 300 mg/kg p.o. once daily
  growth in tumor volume: lowest dose tested (30 mg/kg) appeared to give the greatest effect

## NCCCCC(NC(CCc1ccccc1)C(=O)O)C(=O)N1CCCC1C(=O)O.O.O (stereo not shown) [lisinopril, 1-(6-amino-2-(1-carboxy-3-phenyl-propyl)aminohexanoyl)pyrrolidine-2-carboxylic acid dihydrate]
T47D (ER+, PR+)
  ER protein concentration: No such effects
  PR protein concentration: No such effects
  [3H]thymidine incorporation (an index of cell proliferation): No such effects

## CCCCc1nc(Cl)c(CO)n1Cc1ccc(-c2ccccc2-c2nn[nH]n2)cc1 [losartan]
[1]
  effect on Ang II-stimulated proliferation: blocked

## CC/C(=C(\c1ccccc1)c1ccc(OCCN(C)C)cc1)c1ccccc1 [tamoxifen]
T47D (ER+ cell line); T47D, tamoxifen 7.5 μM + Ang II 500 nM
  effect on Ang II-induced cell proliferation: reduced cell proliferation to a level lower than that of vehicle control
T47D xenografts; tamoxifen 0.1, 0.3, 1.0 mg/kg p.o. once daily
  growth in tumor volume: reduced in a dose-dependent fashion
Invasive breast cancer
  reduction of incidence of invasive breast cancer: ~50%

## CCCc1nc2c(C)cc(-c3nc4ccccc4n3C)cc2n1Cc1ccc(-c2ccccc2C(=O)O)cc1 [telmisartan]
T47D (ER+ cell line); T47D, telmisartan 1.25 μM or 5 μM + Ang II 500 nM
  inhibition of Ang II-induced growth: significantly inhibited Ang II-induced growth
HCC1143 (ER− cell line); HCC1143, telmisartan 1.25 μM or 5 μM + Ang II 500 nM
  effect on cell proliferation: No effects

## Ang II: peptide angiotensin II, a major regulator of blood pressure and cardiovascular homeostasis; from Sigma-Aldrich (DRVYIHPF; Angiotensin-2; UniProt P01019 25-32, looked up)
T47D (ER+ cell line); T47D
  Ang II proliferation response: positive
T47D (ER+ cell line); T47D (ER+), Ang II 500 nM vs vehicle control, after 8 h serum starvation
  effect of Ang II on growth / cell proliferation: significantly stimulated growth; also recorded: substantial increase in cell proliferation
HCC1143 (ER− cell line); HCC1143
  Ang II proliferation response: negative
HCC1143 (ER− cell line); HCC1143 (ER−), Ang II 500 nM vs vehicle control
  effect of Ang II on growth / cell proliferation: No effects
HCC70; HCC70
  Ang II proliferation response: positive
HCC70; HCC70 (ER+), Ang II, data not shown
  stimulation of proliferation relative to vehicle control: approximately 30%
ZR-75; ZR-75
  Ang II proliferation response: positive
ZR-75; ZR-75 (ER+), Ang II, data not shown
  stimulation of proliferation relative to vehicle control: approximately 35%
HCC1395
  Ang II proliferation response: negative
HCC1954
  Ang II proliferation response: negative
HCC1937
  Ang II proliferation response: negative
HCC38
  Ang II proliferation response: negative
[1]; Ang II
  proliferation of cultured cells: stimulated in a dose-dependent manner
T47D
  stimulation of cell growth by Ang II: significant stimulation of cell growth
MCF-7
  proliferative effect: dose-dependent proliferative effect
